“Also recorded” adds a separate entry of the source.
What was measured:
mouse aorta = assay: Myography of cannulated mouse aorta; settings: listed as Egm
Description: For myography, to test the vascular tone for presense of downstream or off target effects, mouse aorta was mounted and cannulated on a closed system. A physiological buffer (with respect to pH, CO2, and temperature) was circulated through the vessel.

mouse cardiomyocytes = assay: Calcium handling in isolated mouse cardiomyocytes; format: cell-based; settings: 10 μM
Description: To observe whether the effects of eggmanone administration are cardiomyocyte specific or due to off target effects, the contractility of individual mouse cardiomyocytes and the tone of ascending/descending aorta was observed. In mouse cardiomyocytes, Egm caused a 50% increase in contractility over vehicle control (FIG. 32).

RSV = RSV infection in mice (body weight, lung plaque assay); settings: 20 mg/kg IP 3× daily
NIH3T3 cells = assay: Cell viability of parental NIH3T3 cells; format: cell-based
[1] = system: Bovine Viral Diarrhea Virus; assay: BVDV CPE assay; format: cell-based
Procedure: Provided in FIG. 37 are the results from BVDV (Bovine Viral Diarrhea Virus, surrogate for Hepatitis C virus) CPE ([…]) testing done. The assay was repeated with […] (a PDE4B and PDE4D inhibitor). Hi913 (our prototypic PDE4 inhibitor) was tested in half-log concentrations ranging from 100 μM to 0.33 μM. As the stock solution of […] was 10 mM, this meant that the final DMSO concentrations for the highest Hi913 concentrations were 1%, 0.33%, and 0.1%. The normal final DMSO concentrations used is 0.1%, so additional DMSO controls of 1% and 0.33% were included. The Hi913 data for the highest 3 concentrations is normalized to the respective DMSO concentrations. […] The outlier effects at 100 μM are probably due to cytotoxicity at the high drug concentration.

[2] = system: RSV (respiratory syncytial virus); assay: RSV CPE / plaque assay in HEp-2 cells; format: cell-based
Procedure: In Table 11, the results of CPE assays following infection of human epidermoid cancer cells (HEp-2) with RSV. Even at 10,000 higher viral titers, our compound achieved complete inhibition at 10 μM. At 1 and 3 μM, the compound achieved over 98% reduction. The exemplary compound alone caused no apparent cytotoxicity at these concentrations.

PDE4D3-AKAP450 = PDE4D3-AKAP450 (Homo sapiens, UniProt Q08499); assay: PDE4D3 localization and co-immunoprecipitation with AKAP450; format: cell-based; settings: 5 μM
PDE4D3-AKAP450, sequence (Q08499 1-673 isoform Q08499-2): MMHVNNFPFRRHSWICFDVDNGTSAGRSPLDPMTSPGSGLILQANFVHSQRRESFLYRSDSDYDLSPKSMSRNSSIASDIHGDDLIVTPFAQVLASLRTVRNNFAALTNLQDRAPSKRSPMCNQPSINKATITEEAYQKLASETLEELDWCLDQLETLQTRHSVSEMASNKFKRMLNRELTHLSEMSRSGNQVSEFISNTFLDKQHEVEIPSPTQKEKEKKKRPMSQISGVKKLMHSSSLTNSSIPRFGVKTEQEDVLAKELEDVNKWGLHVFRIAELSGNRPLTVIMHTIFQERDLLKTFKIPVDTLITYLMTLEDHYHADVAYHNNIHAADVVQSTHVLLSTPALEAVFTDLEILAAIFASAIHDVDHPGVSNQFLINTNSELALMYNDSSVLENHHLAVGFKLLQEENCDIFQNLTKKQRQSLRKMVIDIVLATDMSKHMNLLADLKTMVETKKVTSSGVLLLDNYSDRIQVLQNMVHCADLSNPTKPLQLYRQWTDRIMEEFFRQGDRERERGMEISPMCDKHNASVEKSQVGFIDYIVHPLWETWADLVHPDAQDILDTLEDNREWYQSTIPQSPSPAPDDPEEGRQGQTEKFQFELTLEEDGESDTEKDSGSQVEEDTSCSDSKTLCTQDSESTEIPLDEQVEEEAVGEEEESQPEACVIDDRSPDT
PDE4D3-AKAP450, sequence (Q70FJ1 whole entry partner): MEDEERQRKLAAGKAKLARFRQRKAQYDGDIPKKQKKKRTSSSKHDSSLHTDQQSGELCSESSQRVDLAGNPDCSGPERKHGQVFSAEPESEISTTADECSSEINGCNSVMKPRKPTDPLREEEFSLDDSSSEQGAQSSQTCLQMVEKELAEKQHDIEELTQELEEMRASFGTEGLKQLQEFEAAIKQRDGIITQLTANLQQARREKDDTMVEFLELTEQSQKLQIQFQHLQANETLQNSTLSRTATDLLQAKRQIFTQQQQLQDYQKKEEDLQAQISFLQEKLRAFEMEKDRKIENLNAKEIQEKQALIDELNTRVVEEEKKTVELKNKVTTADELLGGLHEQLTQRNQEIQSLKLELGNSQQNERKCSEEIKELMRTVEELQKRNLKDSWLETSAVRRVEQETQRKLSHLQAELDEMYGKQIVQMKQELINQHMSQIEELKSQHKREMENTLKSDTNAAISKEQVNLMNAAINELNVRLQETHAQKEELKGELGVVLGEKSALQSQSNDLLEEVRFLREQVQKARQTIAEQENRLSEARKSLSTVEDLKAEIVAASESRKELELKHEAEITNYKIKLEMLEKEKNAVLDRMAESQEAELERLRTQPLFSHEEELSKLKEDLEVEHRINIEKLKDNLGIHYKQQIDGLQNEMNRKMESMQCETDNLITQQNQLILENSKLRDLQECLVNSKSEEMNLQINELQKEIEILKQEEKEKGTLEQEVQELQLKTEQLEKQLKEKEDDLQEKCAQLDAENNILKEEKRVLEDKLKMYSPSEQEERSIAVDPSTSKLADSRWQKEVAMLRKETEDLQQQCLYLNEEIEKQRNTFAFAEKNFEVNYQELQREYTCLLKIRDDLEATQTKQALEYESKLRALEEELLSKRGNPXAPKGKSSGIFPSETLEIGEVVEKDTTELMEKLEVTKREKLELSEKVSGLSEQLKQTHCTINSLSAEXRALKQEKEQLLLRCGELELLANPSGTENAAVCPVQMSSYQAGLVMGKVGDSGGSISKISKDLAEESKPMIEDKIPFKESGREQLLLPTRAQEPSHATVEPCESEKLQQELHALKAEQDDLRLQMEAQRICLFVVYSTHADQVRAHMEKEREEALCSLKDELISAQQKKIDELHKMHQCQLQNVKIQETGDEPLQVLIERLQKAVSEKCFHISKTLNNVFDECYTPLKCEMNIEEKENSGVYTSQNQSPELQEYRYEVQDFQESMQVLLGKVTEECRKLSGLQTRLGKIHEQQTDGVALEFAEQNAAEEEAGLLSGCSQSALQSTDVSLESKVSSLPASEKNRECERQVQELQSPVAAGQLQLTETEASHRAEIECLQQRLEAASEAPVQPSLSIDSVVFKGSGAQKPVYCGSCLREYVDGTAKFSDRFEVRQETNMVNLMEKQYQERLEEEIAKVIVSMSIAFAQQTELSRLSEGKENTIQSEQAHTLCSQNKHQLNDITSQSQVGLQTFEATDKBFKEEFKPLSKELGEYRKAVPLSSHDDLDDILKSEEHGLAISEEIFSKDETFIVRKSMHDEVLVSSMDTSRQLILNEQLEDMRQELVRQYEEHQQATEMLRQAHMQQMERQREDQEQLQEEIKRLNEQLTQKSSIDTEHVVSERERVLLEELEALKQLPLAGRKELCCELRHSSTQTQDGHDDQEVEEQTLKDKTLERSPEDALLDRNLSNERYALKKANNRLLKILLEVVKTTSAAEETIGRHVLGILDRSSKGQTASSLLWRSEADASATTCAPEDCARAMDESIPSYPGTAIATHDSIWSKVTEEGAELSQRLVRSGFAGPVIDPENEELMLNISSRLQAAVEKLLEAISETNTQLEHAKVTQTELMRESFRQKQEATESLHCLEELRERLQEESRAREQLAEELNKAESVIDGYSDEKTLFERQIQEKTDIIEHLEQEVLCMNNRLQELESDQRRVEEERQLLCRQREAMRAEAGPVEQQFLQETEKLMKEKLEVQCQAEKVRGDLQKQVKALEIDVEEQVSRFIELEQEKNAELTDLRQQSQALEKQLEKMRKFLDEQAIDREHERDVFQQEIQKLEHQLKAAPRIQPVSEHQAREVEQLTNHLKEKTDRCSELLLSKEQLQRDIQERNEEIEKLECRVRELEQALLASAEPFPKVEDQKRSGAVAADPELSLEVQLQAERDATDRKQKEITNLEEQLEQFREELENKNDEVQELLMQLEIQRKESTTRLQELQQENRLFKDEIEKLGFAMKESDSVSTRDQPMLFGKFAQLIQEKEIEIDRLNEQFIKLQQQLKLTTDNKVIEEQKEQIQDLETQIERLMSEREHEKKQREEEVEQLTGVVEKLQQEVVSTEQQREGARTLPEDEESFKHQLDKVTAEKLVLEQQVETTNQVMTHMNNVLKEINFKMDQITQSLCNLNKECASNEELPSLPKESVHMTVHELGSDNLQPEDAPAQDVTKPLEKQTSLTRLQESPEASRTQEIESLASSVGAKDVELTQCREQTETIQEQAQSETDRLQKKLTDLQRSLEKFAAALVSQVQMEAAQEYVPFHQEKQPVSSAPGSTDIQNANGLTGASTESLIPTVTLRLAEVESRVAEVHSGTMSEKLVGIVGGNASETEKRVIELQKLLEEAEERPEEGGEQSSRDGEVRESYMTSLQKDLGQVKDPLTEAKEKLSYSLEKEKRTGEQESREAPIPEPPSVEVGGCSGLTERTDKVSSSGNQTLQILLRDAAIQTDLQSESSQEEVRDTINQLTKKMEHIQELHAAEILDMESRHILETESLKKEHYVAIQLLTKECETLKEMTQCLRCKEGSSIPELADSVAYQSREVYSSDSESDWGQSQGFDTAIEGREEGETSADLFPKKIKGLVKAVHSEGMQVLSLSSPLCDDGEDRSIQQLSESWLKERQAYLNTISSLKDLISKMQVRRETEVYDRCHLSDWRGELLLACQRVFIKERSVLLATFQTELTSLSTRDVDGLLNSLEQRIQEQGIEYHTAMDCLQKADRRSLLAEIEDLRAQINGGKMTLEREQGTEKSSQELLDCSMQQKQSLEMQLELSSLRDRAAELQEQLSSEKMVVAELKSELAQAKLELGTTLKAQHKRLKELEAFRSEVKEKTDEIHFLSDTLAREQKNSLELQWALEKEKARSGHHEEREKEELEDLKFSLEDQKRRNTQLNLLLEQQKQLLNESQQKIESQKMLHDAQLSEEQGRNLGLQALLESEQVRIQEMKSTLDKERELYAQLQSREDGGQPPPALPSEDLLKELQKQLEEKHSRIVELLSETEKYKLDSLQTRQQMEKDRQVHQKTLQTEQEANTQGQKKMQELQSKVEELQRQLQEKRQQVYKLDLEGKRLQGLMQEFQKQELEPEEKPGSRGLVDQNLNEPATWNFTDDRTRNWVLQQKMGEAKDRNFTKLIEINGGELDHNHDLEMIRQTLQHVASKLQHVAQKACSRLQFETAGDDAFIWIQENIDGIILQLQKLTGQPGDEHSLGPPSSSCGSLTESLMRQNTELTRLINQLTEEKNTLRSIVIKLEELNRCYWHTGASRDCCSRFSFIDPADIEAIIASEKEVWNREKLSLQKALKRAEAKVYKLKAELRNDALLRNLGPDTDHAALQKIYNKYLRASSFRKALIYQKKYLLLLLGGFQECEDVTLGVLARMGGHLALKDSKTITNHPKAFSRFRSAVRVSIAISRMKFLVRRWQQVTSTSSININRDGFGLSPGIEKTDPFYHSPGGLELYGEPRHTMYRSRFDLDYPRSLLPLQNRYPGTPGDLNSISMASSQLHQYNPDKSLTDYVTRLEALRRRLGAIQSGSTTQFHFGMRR

| SMILES | Vessel diameter after pre-constriction (mouse aorta) | Calcium handling (mouse cardiomyocytes) | Normalized body weight (RSV) | Lung viral titer (plaque assay) (RSV; day 3) | Viability of NIH3T3 cells (NIH3T3 cells) | Antiviral effect on BVDV [1] | Antiviral effect on RSV [2] | PDE4D3 localization / physical association with AKAP450 (PDE4D3-AKAP450) |
| --- | --- | --- | --- | --- | --- | --- | --- | --- |
| C=C(C)Cn1c(SCC(=O)c2cccs2)nc2sc3c(c2c1=O)CCCC3 [EGM, Eggmanone] | little to no contraction or dilation of the vessel; also recorded: had no effect on the vessel | not associated with alterations in calcium handling | slightly lower than that with control | significantly reduced viral titer at day 3 |  |  |  |  |
| C=C(C)Cn1c(SCC(=O)c2cccs2)nc2sc3c(c2c1=O)CCCC3 [Eggmanone, 3-(2-methylallyl)-2-((2-oxo-2-(thiophen-2-yl)ethyl)thio)-5,6,7,8-tetrahydrobenzo[4,5]thieno[2,3-d]pyrimidine-4(3H)-one] |  |  |  |  | had no effect on parental NIH3T3 cells | has antiviral effects | has antiviral effects | does not disrupt PDE4D3 localization; also recorded: did not disrupt PDE4D3 localization or physical association with AKAP450 |

— patent US10329304B2, “Compounds and methods for inhibition of hedgehog signaling and phosphodiesterase” (Vanderbilt University, priority 2014, dated 2019)
